# Laboratory results reported in patent publication US10227331B2 (priority 2015, dated 2019).
# pIC50: −log10 of the molar value.
# Tests used:
# IMP-1 = IMP-1 (Serratia marcescens, UniProt P52699); test: biochemical; type: biochemical; conditions: CCF2-FA substrate, 2 hours at 25° C; read-out: IMP-1 IC50
# In short: (§1)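 Fluorescence assay of metallo-β-lactamase activity using CCF2-FA, a cephalosporin-linked 7-hydroxycoumarin–fluorescein substrate. Inhibitor, enzyme and substrate were incubated together for 2 hours at 25° C. IC50 came from a 4-parameter fit of inhibition versus inhibitor concentration.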
# NDM-1 = NDM-1 (Klebsiella pneumoniae, UniProt C7C422); test: biochemical; type: biochemical; conditions: CCF2-FA substrate, 2 hours at 25° C; read-out: NDM-1 IC50
# In short: as §1
# [1] = tested on: P. aeruginosa expressing IMP-1, efflux− (MB9799); test: Efflux: concentration of MBL inhibitor which restores susceptibility to imipenem; type: cell-based, Pseudomonas aeruginosa; conditions: imipenem at 2 μg/mL, in the presence of a class A, C, D serine β-lactamase inhibitor closely related to relebactam
# Source text: (§2) The strain background is Pseudomonas aeruginosa PAO1.
# VIM-1 = VIM-1 (Pseudomonas aeruginosa (strain ATCC 15692 / DSM 22644 / CIP 104116 / JCM 14847 / LMG 12228 / 1C / PRS 101 / PAO1), UniProt A0A0F7KYQ8); test: biochemical; conditions: CCF2-FA substrate, 2 hours at 25° C
# In short: as §1
# [2] = tested on: P. aeruginosa expressing IMP-1, efflux+ (MB9798); type: cell-based, Pseudomonas aeruginosa; conditions: for P. aeruginosa expressing IMP-1, efflux+ (MB9798) MITC95: imipenem at 2 μg/mL, in the presence of a class A, C, D serine β-lactamase inhibitor closely related to relebactam; for Efflux ratio: ratio MITC95 PA_9798/MITC95 PA_9799
# Source text: as §2
# [3] = tested on: Escherichia coli expressing NDM-1 (CLB30005, CLB30016); type: cell-based; conditions: with imipenem 1 μg/ml, 95% inhibition of bacterial growth; for Escherichia coli MITC95: NDM-1 (CLB30016)
# In short: (§3)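 Clinical strains grown overnight on blood agar, then diluted 1:100 in 1.1× CAMHB and exposed to test compound with imipenem at 1 μg/ml. Incubation was 22–24 h at 35° C; growth was read by absorbance to find the compound concentration restoring imipenem susceptibility.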
# [4] = tested on: Klebsiella pneumoniae expressing VIM-1 (IHMA599644); type: cell-based; conditions: with imipenem 1 μg/ml, 95% inhibition of bacterial growth; for Klebsiella pneumoniae MITC95: VIM-1 (IHMA599644)
# In short: as §3
# [5] = tested on: Serratia marcescens expressing IMP-1 (CL5741); type: cell-based; conditions: with imipenem 1 μg/ml, 95% inhibition of bacterial growth; for Serratia marcescens MITC95: IMP-1 (CL5741)
# In short: as §3
# NDM-1, sequence (C7C422 whole entry, looked up, species assumed): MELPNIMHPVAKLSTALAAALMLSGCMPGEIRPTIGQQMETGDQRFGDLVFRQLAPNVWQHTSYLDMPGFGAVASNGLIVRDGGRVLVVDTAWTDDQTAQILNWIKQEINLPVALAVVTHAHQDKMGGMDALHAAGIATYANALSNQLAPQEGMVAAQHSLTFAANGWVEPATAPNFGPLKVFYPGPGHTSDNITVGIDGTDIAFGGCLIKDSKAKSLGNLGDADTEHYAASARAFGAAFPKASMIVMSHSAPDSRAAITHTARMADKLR
# IMP-1, sequence (P52699 whole entry, looked up, species assumed): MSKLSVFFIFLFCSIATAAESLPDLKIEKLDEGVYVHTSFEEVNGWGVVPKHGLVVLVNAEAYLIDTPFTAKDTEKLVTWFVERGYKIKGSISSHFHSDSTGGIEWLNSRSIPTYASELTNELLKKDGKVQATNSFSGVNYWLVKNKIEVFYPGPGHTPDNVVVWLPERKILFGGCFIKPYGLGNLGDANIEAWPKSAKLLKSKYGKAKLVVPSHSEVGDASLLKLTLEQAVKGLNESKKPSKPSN
SMILES,pIC50 (IMP-1),pIC50 (NDM-1),"P. aeruginosa expressing IMP-1, efflux− (MB9799) MITC95 [1] [µM]",pIC50 (VIM-1),"P. aeruginosa expressing IMP-1, efflux+ (MB9798) MITC95 [2] [µM]",Efflux ratio [2],Escherichia coli expressing NDM-1 (CLB30016) MITC95 [3] [µM],Klebsiella pneumoniae expressing VIM-1 (IHMA599644) MITC95 [4] [µM],Serratia marcescens expressing IMP-1 (CL5741) MITC95 [5] [µM],Escherichia coli MITC95 [3] [µM],Klebsiella pneumoniae MITC95 [4] [µM],Serratia marcescens MITC95 [5] [µM]
"NCCS(=O)(=O)c1ccc(-c2cnn3c2CCC3)c(-c2nnn[nH]2)c1S(N)(=O)=O.O=C(O)C(F)(F)F [Example 152, 2-((4-(5,6-dihydro-4H-pyrrolo[1,2-b]pyrazol-3-yl)-2-sulfamoyl-3-(1H-tetrazol-5-yl)phenyl)sulfonyl)ethanaminium 2,2,2-trifluoroacetate]",8.32,8.23,1.563,8.70,50,31.99,3.125,6.25,6.25,,,
"NCCS(=O)(=O)c1ccc(-c2cccc3c2NC(=O)C3O)c(-c2nnn[nH]2)c1S(N)(=O)=O (stereo not drawn) [Example 347, 6-((2-Aminoethyl)sulfonyl)-3-(3-hydroxy-2-oxoindolin-7-yl)-2-(1H-tetrazol-5-yl)benzenesulfonamide]",8.87,8.76,3.125,9.03,12.5,4.00,,,,3.125,6.25,1.563
"N#Cc1ccc(-c2ccc(S(=O)(=O)CCN)c(S(N)(=O)=O)c2-c2nnn[nH]2)cn1.O=C(O)C(F)(F)F [Example 144, 2-((4-(6-cyanopyridin-3-yl)-2-sulfamoyl-3-(1H-tetrazol-5-yl)phenyl)sulfonyl)ethanaminium 2,2,2-trifluoroacetate]",8.25,8.14,1.563,8.52,50,31.99,0.7813,3.125,3.125,,,
"NS(=O)(=O)c1c(S(=O)(=O)C2CNC2)ccc(-c2cnn3c2CCCC3)c1-c1nnn[nH]1.O=C(O)C(F)(F)F [Example 129, 3-((2-sulfamoyl-4-(4,5,6,7-tetrahydropyrazolo[1,5-a]pyridin-3-yl)-3-(1H-tetrazol-5-yl)phenyl)sulfonyl)azetidin-1-ium 2,2,2-trifluoroacetate]",8.58,9.19,1.563,8.91,25,15.99,6.25,6.25,6.25,,,
"NC[C@@H](O)CS(=O)(=O)c1ccc(-c2cccc3[nH]c(N)nc23)c(-c2nn[nH]n2)c1S(N)(=O)=O [Example 312, 3-(2-amino-1H-benzo[d]imidazol-4-yl)-6-((R)-3-amino-2-hydroxypropylsulfonyl)-2-(2H-tetrazol-5-yl)benzenesulfonamide]",9.37,9.92,0.5573,9.41,0.2786,0.50,,,,0.3477,0.8542,0.5573
"C[C@@H](CN)S(=O)(=O)c1ccc(-c2cccc3c2nc(N)n3C)c(-c2nn[nH]n2)c1S(N)(=O)=O [Example 280, 3-(2-amino-1-methyl-1H-benzo[d]imidazol-4-yl)-6-((S)-1-aminopropan-2-ylsulfonyl)-2-(2H-tetrazol-5-yl)benzenesulfonamide]",9.02,9.65,0.7813,9.35,3.125,4.00,,,,0.3906,1.563,0.7813
"Nc1nc2c(-c3ccc(S(=O)(=O)CC4(N)CC4)c(S(N)(=O)=O)c3-c3nn[nH]n3)cccc2s1 [Example 95, 3-(2-aminobenzo[d]thiazol-4-yl)-6-((1-aminocyclopropyl)methylsulfonyl)-2-(2H-tetrazol-5-yl)benzenesulfonamide]",9.66,9.86,1.563,9.53,3.125,2.00,1.563,6.25,1.563,,,
"C[C@H](N)CS(=O)(=O)c1ccc(-c2cccc3sc(N)nc23)c(-c2nn[nH]n2)c1S(N)(=O)=O [Example 93, 3-(2-aminobenzo[d]thiazol-4-yl)-6-((S)-2-aminopropylsulfonyl)-2-(2H-tetrazol-5-yl)benzenesulfonamide]",9.89,10.14,0.7813,9.89,0.7813,1.00,1.172,3.125,0.7813,,,
"CC(=O)Nc1nc2c(-c3ccc(S(=O)(=O)CCN)c(S(N)(=O)=O)c3-c3nn[nH]n3)cccc2s1 [Example 82, N-(4-(4-(2-aminoethylsulfonyl)-3-sulfamoyl-2-(2H-tetrazol-5-yl)phenyl)benzo[d]thiazol-2-yl)acetamide]",9.71,10.06,1.563,9.88,3.125,2.00,1.563,3.125,1.563,,,
"NC[C@H](N)CS(=O)(=O)c1ccc(-c2ccc(N)nc2)c(-c2nn[nH]n2)c1S(N)(=O)=O [Example 372, (S)-3-(6-aminopyridin-3-yl)-6-((2,3-diaminopropyl)sulfonyl)-2-(2H-tetrazol-5-yl) benzenesulfonamide]",8.85,8.93,1.563,9.00,3.125,2.00,,,,0.7813,3.125,1.563
"NC(=O)c1cn2cccc(-c3ccc(S(=O)(=O)C4CNC4)c(S(N)(=O)=O)c3-c3nnn[nH]3)c2n1 [Example 59, 8-(4-(azetidin-3-ylsulfonyl)-3-sulfamoyl-2-(1H-tetrazol-5-yl)phenyl)imidazo[1,2-a]pyridine-2-carboxamide]",8.84,9.88,1.563,9.73,3.125,2.00,3.125,3.125,3.125,,,
